The assay addresses T1, p101/p110γ protein (PI3Kγ) (Homo sapiens, UniProt P48736).
T1 construct: HA; made in house; host or cells: Spodoptera frugiperda (Sf9) cells, baculovirus coinfection
As to the kind of experiment: PI3Kγ In Vitro Kinase Assay. It counts as biochemical. The settings on record: purified recombinant p101/p110γ with G protein β1/γ2 subunits; 20 μM ATP, 25 μM PIP2; 20 minutes at room temperature; radioactive PIP3 readout. As for the experimental part:
Spodtera frugiperda cells, grown in ESF921 media, were coinfected with baculovirus expressing a glu-tagged […] and baculovirus expressing an HA-tagged p110γ, at a 3:1 ratio of p110 baculovirus to p110γ baculovirus. Sf9 cells were grown to 1×10^7 total cells/mL in 10L bioreactors and harvested 48-72 hours post infection. Samples of infected cells were then tested for expression of p101/p110γ PI3 kinase by immunoprecipitation and Western Blot analysis methods (see below).
To purify PI3Kγ, 4 volumes of room temperature hypotonic lysis buffer (1 mM MgCl2, 1 mM DTT, 5 mM EGTA, 1 mM Pefabloc, 0.5 μM aprotinin, […], 2 μM pepstatin, 5 μM E64, pH 8) per gram of cell paste, was poured onto frozen cell pellets with stirring, then lysed in a nitrogen “bomb” at 400 psi (599HC T316, Parr Instrument Co, Moline, Ill.). NaCl was added to 150 mM, and sodium cholate was added to 1% and mixed for another 45 minutes. The lysates were clarified by centrifugation for 25 minutes at 14,000 rpm. The lysates were then loaded over anti-glu-linked Protein-G Sepaharose beads (Covance Research Products, Richmond, Calif.) using 20 mL resin/50 g cell paste. The column was washed with 15 volumes of wash buffer (1 mM DTT, 0.2 mM EGTA, 1 mM Pefabloc, 0.5 μM aprotinin, 5 μM leupeptin, 2 μM pepstatin, 5 μM E64, 150 mM NaCl, 1% sodium cholate, pH 8). PI3Kγ was eluted with 6 column volumes of wash buffer that contain 100 μg/mL of a peptide that competes for binding of the glu tag. The column fractions with the eluted protein (determined by taking OD280 readings) were collected and dialyzed in 0.2 mM EGTA, 1 mM DTT, 1 mM Pefabloc, 5 μM leupeptin, 0.5% sodium cholate, 150 mM NaCl, and 50% glycerol, pH 8. The fractions were stored at −80° C. until further use.
Spodtera frugiperda cells were coinfected with baculovirus expressing a glu-tagged G protein β1 and baculovirus expressing a […] at a 1:1 ratio of glu-tagged G protein β1 baculovirus to G protein β2 baculovirus. Sf9 cells are grown in 10 L bioreactors and harvested 48-72 hours post infection. Samples of infected cells were tested for G protein β1/β2 expression by Western Blot analysis, as described below. Cell lysates were homogenized and loaded onto a column of glu-tagged beads as in Biological Example 1 and competed off the column with a glu peptide as described in Biological Example 1.
The inhibitory properties of the compounds in Table 1 were assayed in an in vitro PI3K assay. In a 96-well polypropylene plate, each well was spotted with 2 μL of 50 times the desired final concentration of compound in DMSO. Purified recombinant p101/p110γ protein (0.03 μg; ˜2.7 nM) and G protein β1/γ2 subunits (0.09 μg; −57.7 nM) for each reaction was combined in the assay buffer (30 mM HEPES, 100 mM NaCl, 1 mM EGTA, and 1 mM DTT). ATP and [γ-^32P-ATP] (0.09 μCi) were added to this mixture so that the final ATP concentration in the reaction was 20 μM. Lipid micelles were formed by sonicating phosphatidylinositol-4,5-diphosphate (PIP2), phosphatidylethanolamine (PE), and Na-cholate in the assay buffer for 10 minutes, adding MgCL2 and incubating on ice for 20 minutes, for final concentrations of 25 μM PIP2, 300 μM PE, 0.02% Na-cholate, and 10 mM MgCl2 in the reaction. The reactions were started by adding equal volumes lipid and enzyme mixture in a total volume of 50 μL, allowed to run for 20 minutes at room temperature, and stopped with 100 μL 75 mM H3PO4. The lipid product was transferred to a glass fiber filter plate and washed with 75 mM H3PO4 several times. The presence of radioactive lipid product (PIP3) was measured by adding Wallac Optiphase mix to each well and counting in a Wallac 1450 Trilux plate reader (PerkinElmer Life Sciences Inc., Boston, Mass. 02118). The IC50 for each compound tested is reported in μM in Table 1: […]
T1 sequence (P48736 whole entry, species assumed): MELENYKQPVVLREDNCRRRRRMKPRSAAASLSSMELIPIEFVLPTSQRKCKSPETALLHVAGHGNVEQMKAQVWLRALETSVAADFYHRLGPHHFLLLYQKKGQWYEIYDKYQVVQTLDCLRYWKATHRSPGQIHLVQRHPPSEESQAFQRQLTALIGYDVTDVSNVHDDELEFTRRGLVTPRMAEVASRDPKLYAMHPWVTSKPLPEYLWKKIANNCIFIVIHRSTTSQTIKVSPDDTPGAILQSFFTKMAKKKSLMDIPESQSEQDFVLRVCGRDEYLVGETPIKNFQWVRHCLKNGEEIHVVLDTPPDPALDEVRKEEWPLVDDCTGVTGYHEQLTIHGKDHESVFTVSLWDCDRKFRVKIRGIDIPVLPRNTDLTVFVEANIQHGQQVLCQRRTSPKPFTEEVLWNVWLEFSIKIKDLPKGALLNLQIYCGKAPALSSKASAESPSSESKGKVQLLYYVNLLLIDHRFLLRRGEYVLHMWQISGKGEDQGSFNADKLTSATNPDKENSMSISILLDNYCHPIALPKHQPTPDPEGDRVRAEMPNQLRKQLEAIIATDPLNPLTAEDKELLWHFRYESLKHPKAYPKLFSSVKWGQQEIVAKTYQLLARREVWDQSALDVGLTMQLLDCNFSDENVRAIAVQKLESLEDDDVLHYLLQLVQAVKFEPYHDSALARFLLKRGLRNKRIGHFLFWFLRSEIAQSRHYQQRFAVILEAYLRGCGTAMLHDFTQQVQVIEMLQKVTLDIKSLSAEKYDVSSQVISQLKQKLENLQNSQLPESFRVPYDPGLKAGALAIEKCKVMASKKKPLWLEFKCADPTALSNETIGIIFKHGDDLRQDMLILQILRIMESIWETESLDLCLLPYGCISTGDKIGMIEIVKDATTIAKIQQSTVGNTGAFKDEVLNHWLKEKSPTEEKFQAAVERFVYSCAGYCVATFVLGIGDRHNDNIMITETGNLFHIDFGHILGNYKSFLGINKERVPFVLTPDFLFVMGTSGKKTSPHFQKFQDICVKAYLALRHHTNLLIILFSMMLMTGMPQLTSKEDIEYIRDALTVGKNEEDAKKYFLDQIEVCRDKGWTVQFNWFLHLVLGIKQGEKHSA
T1 sequence (Q8WYR1 whole entry partner, species assumed): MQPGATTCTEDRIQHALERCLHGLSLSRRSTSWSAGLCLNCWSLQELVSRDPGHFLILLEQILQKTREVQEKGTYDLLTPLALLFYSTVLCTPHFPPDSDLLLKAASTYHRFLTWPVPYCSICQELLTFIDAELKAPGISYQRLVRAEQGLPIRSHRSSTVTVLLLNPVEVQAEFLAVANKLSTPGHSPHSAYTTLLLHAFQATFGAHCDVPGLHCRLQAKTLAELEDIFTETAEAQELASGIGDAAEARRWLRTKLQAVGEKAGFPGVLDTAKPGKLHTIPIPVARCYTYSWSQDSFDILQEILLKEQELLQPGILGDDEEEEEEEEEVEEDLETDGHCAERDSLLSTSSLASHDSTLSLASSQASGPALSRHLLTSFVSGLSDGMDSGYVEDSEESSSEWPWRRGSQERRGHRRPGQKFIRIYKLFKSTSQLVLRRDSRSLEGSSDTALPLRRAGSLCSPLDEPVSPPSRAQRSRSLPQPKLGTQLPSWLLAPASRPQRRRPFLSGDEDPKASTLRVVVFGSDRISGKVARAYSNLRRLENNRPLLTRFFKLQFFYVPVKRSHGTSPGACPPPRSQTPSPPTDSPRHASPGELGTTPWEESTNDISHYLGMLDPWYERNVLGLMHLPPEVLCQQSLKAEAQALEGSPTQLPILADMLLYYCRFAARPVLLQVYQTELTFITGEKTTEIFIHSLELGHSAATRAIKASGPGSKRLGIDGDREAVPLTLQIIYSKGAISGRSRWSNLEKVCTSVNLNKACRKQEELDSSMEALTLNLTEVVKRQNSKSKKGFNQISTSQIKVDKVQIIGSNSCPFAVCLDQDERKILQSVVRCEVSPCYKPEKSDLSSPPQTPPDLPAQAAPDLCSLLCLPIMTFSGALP
In general, IC50 refers to the point on the concentration scale where inhibition reaches its midpoint. `CC(=O)N1CCC(C(=O)N2CCOc3ccc(C=C4SC(=S)NC4=O)cc32)CC1` [Example 102, 5-[4-(1-Acetyl-piperidine-4-carbonyl)-3,4-dihydro-2H-1,4-benzoxazin-6-ylmethylene]-2-thioxo-thiazolidin-4-one]: the IC50 was determined as 37 nM. As for `O=C1NC(=S)SC1=Cc1ccc2c(c1)N(C(=O)C=Cc1ccccc1)CCO2` [Example 37, 5-[4-(3-Phenyl-acryloyl)-3,4-dihydro-2H-1,4-benzoxazin-6-ylmethylene]-2-thioxo-thiazolidin-4-one], the figure is 7 nM; as for `COC(=O)c1ccc(OC(=O)N2CCCOc3ccc(C=C4SC(=S)NC4=O)cc32)cc1` [Example 108, 2-(4-Oxo-2-thioxo-thiazolidin-5-ylidenemethyl)-7,8-dihydro-6H-5-oxa-9-aza-benzocycloheptene-9-carboxylic acid 4-methoxycarbonyl-phenyl ester], 640 nM.

In the case of `COc1cc(NC(=O)N2CCOc3ccc(C=C4SC(=S)NC4=O)cc32)cc(OC)c1` [Example 67, 6-(4-Oxo-2-thioxo-thiazolidin-5-ylidenemethyl)-2,3-dihydro-1,4-benzoxazine-4-carboxylic acid (3,5-dimethoxy-phenyl)-amide], the IC50 came to 39 nM. As for `O=C1NC(=S)SC1=Cc1ccc2c(c1)N(C(=O)c1cc(Cl)cc(Cl)c1)CCO2` [Example 63, 5-[4-(3,5-Dichloro-benzoyl)-3,4-dihydro-2H-1,4-benzoxazin-6-ylmethylene]-2-thioxo-thiazolidin-4-one], the figure is 145 nM; as for `Cc1cccc(C(=O)N2CCOc3ccc(C=C4SC(=S)NC4=O)cc32)c1` [Example 23, 5-[4-(3-Methyl-benzoyl)-3,4-dihydro-2H-1,4-benzoxazin-6-ylmethylene]-2-thioxo-thiazolidin-4-one], 101 nM. As for `COC(=O)CCC(=O)N1CCOc2ccc(C=C3SC(=S)NC3=O)cc21` [Example 101, 4-Oxo-4-[6-(4-oxo-2-thioxo-thiazolidin-5-ylidenemethyl)-2,3-dihydro-1,4-benzoxazin-4-yl]-butyric acid methyl ester], the figure is 20 nM. As for `O=C1NC(=S)SC1=Cc1ccc2c(c1)N(C(=O)C1CCCCC1)CCO2` [Example 2, 5-[4-(1-Cyclohexyl-methanoyl)-3,4-dihydro-2H-benzo[1,4]oxazine-6-ylmethylene]-2-thioxo-thiazolidin-4-one], the figure is 21.7 nM; as for `O=C1NC(=S)SC1=Cc1ccc2c(c1)N(C(=O)C1CCCC1)CCO2` [Example 33, 5-(4-Cyclopentanecarbonyl-3,4-dihydro-2H-1,4-benzoxazin-6-ylmethylene)-2-thioxo-thiazolidin-4-one], 14 nM; as for `COC(=O)c1ccc(OC(=O)N2CCOc3ccc(C=C4SC(=S)NC4=O)cc32)cc1` [Example 50, 6-(4-Oxo-2-thioxo-thiazolidin-5-ylidenemethyl)-2,3-dihydro-1,4-benzoxazine-4-carboxylic acid 4-methoxycarbonyl-phenyl ester], 7 nM. As to `O=C1NC(=S)SC1=Cc1ccc2c(c1)N(C(=O)Oc1ccccc1)CCO2` [Example 17, 6-(4-Oxo-2-thioxo-thiazolidin-5-ylidenemethyl)-2,3-dihydro-1,4-benzoxazine-4-carboxylic acid phenyl ester], the IC50 is 3 nM.

Turning to `O=C1NC(=S)SC1=Cc1ccc2c(c1)N(C(=O)Nc1ccc(Cl)c(Cl)c1)CCO2` [Example 78, 6-(4-Oxo-2-thioxo-thiazolidin-5-ylidenemethyl)-2,3-dihydro-benzo[1,4]oxazine-4-carboxylic acid (3,4-dichloro-phenyl)-amide], the IC50 is 5 nM. As for `COc1cc(CN2CCCOc3ccc(C=C4SC(=S)NC4=O)cc32)cc(OC)c1` [Example 6, 5-[9-(3,5-Dimethoxy-benzyl)-6,7,8,9-tetrahydro-5-oxa-9-aza-benzocyclohepten-2-ylmethylene]-2-thioxo-thiazolidin-4-one], the IC50 turned out to be 151 nM. Turning to `CCCCCCC(=O)N1CCOc2ccc(C=C3SC(=S)NC3=O)cc21` [Example 34, 5-(4-Heptanoyl-3,4-dihydro-2H-1,4-benzoxazin-6-ylmethylene)-2-thioxo-thiazolidin-4-one], the IC50 was found to be 4 nM. As for `O=C1NC(=S)SC1=Cc1ccc2c(c1)N(C(=O)CCC1CCCC1)CCO2` [Example 36, 5-[4-(3-Cyclopentyl-propionyl)-3,4-dihydro-2H-1,4-benzoxazin-6-ylmethylene]-2-thioxo-thiazolidin-4-one], the figure is 5 nM.

Take `O=C1NC(=S)SC1=Cc1ccc2c(c1)NCCCO2` [Example 103, 5-(6,7,8,9-Tetrahydro-5-oxa-9-aza-benzocyclohepten-2-ylmethylene)-2-thioxo-thiazolidin-4-one]: the IC50 came out at 445 nM. As for `COc1cccc(NC(=O)N2CCCOc3ccc(C=C4SC(=S)NC4=O)cc32)c1` [Example 122, 2-(4-Oxo-2-thioxo-thiazolidin-5-ylidenemethyl)-7,8-dihydro-6H-5-oxa-9-aza-benzocycloheptene-9-carboxylic acid (3-methoxy-phenyl)-amide], the figure is 2170 nM; as for `Cc1ccc(F)c(C(=O)N2CCOc3ccc(C=C4SC(=S)NC4=O)cc32)c1` [Example 89, 5-[4-(2-Fluoro-5-methyl-benzoyl)-3,4-dihydro-2H-benzo[1,4]oxazin-6-ethylene]-2-thioxo-thiazolidin-4-one], 200 nM.

With `Cc1cc(C)cc(CN2CCCOc3ccc(C=C4SC(=S)NC4=O)cc32)c1` [Example 7, 5-[9-(3,5-Dimethyl-benzyl)-6,7,8,9-tetrahydro-5-oxa-9-aza-benzocyclohepten-2-ylmethylene]-2-thioxo-thiazolidin-4-one], the IC50 was found to be 780 nM. As for `O=C1NC(=S)SC1=Cc1ccc2c(c1)N(C(=O)c1ccc3c(c1)OC(F)(F)O3)CCO2` [Example 48, 5-[4-(2,2-Difluoro-1,3-benzodioxole-5-carbonyl)-3,4-dihydro-2H-1,4-benzoxazin-6-ylmethylene]-2-thioxo-thiazolidin-4-one], the figure is 715 nM; as for `O=C1NC(=S)SC1=Cc1ccc2c(c1)N(C(=O)COCc1ccccc1)CCO2` [Example 39, 5-[4-(2-Benzyloxy-acetyl)-3,4-dihydro-2H-1,4-benzoxazin-6-ylmethylene]-2-thioxo-thiazolidin-4-one], 14 nM. Take `CCCCCC(=O)N1CCOc2ccc(C=C3SC(=S)NC3=O)cc21` [Example 95, 5-(4-Hexanoyl-3,4-dihydro-2H-1,4-benzoxazin-6-ylmethylene)-2-thioxo-thiazolidin-4-one]: the IC50 was 8 nM. As for `COc1cc(C(=O)N2CCOc3ccc(C=C4SC(=S)NC4=O)cc32)cc(OC)c1OC` [Example 22, 2-Thioxo-5-[4-(3,4,5-trimethoxy-benzoyl)-3,4-dihydro-2H-1,4-benzoxazin-6-ylmethylene]-thiazolidin-4-one], the figure is 4000 nM; as for `O=C1NC(=S)SC1=Cc1ccc2c(c1)N(C(=O)Oc1cccc3ccccc13)CCO2` [Example 69, 6-(4-Oxo-2-thioxo-thiazolidin-5-ylidenemethyl)-2,3-dihydro-1,4-benzoxazine-4-carboxylic acid naphthalen-1-yl ester], 6 nM.

For the origin of these results see patent US20040138199A1, “Benzoxazines and derivatives thereof as therapeutic agents” (priority 2002, published 2004).
